From US8318947B2, “Comestible compositions comprising high potency savory flavorants, and processes for producing them” (Senomyx, Inc., priority 2006, dated 2012)

What was measured:
[1] = tested on: human panelists, savory taste; assay: Savory taste test with trained human panel (difference from reference); type: in vivo; settings: for Taste Data: cpd concentration at which 12 mM MSG + cpd is as strong as 12 mM MSG + 100 μM IMP: with 12 mM MSG, reference 12 mM MSG + 100 μM IMP
Description: General Panelist Selection: Basic screening of sensory taste testers: Potential panelists were tested for their abilities to rank and rate intensities of solutions representing the five basic tastes. Panelists ranked and rated intensity of five different concentrations of each of the five following compounds: sucrose (sweet), sodium chloride (salty), citric acid (sour), caffeine (bitter), and monosodium glutamate (savory). In order to be selected for participation in testing, panelists needed to correctly rank and rate samples for intensity, with a reasonable number of errors.
Preliminary Taste Tests: The panelists selected in the above procedure were deemed qualified for performing Preliminary Taste Testing procedures. The preliminary taste tests are used to evaluate new compounds for intensity of basic tastes and off-tastes. A small group of panelists (n=5) taste approximately 5 concentrations of the compound (range typically between 1-100 μM, in half-log cycles, e.g., 1, 3, 10, 30, and 100 μM) in water and in a solution of 12 mM MSG to evaluate enhancement. Panelists rate the five basic tastes (sweet, salty, sour, bitter, and savory) as well as off-tastes (such as chemical, metallic, sulfur) on a labeled magnitude scale. Samples are served in 10 mL portions at room temperature. The purpose of the test is to determine the highest concentration at which there is no objectionable off-taste, and determine if obvious savory taste or enhancement of savory taste exists at any of the concentrations tested.
Trained Panelist Selection: A trained expert panel was used to further evaluate compounds that had been tested with the preliminary taste test.
Panelists for the trained panel were selected from the larger group of qualifying taste panelists. Panelists were further trained on savory taste by ranking and rating experiments using MSG and IMP combinations. Panelists completed a series of ranking, rating, and difference from reference tests with savory solutions. In ranking and rating experiments, panelists evaluated easy MSG concentrations (0, 6, 18, 36 mM) and more difficult MSG concentrations (3, 6, 12, 18 mM MSG) in water.
Compound testing with Trained Panel: Compounds tested by the trained panel were evaluated in difference from reference experiments. […] Test samples were solutions with varying amounts of MSG, IMP, and the compound. Typically, each session compares the reference sample to numerous test samples. […] Compounds were tested against the reference in samples with and without 12 mM MSG. All samples were presented in 10 ml volumes at room temperature. Two sessions were completed for each compound tested to evaluate panel reproducibility.

external tasters = assay: Cajun BBQ potato chips focus group taste test; type: in vivo, human; settings: chips with 3 ppm compound; eleven panelists
Description: Two solid savory flavor concentrate compositions were prepared by spray drying procedures equivalent to those reported in Example 35. One savory flavor concentrate sample, comprising 0.01% (wt/wt) of the compound of Example 1 was prepared via from the compound of Example 1, Neobee M-5 medium chain triglycerides, N-Lok 1930 modified food starch, and maltodextrin. Another savory flavor concentrate sample, comprising 0.01% (wt/wt) of the compound of Example 24 was similarly prepared via from the compound of Example 24, Neobee M-5 medium chain triglycerides, N-Lok 1930 modified food starch, and maltodextrin. A basic dry seasoning mix for providing Cajun flavor for the chips was prepared by dry blending the ingredients in Table 38-1 using a […] blender for 5 minutes at 40-80 rpms using a wire whip attachment. Kettle® Unsalted potato chips were hand broken into reasonably uniform 1⁄2''×1⁄2'' pieces and placed in a polyethylene 26.7 cm×27.9 cm non-vented food bag. The chips were then heated in an Amana Commercial 1200 watt microwave for 20 seconds to release oils, and so the seasoning would adhere to the chips. […] The panelists evaluated the four sample types of Cajun BBQ chips in a Focus Group taste test procedure and were instructed to write comments on several attributes: sweet, BBQ, Cajun spice, pepper, onion, salt, potato, umami, off tastes, other, and liking or disliking. […]

Compound | Taste Data: cpd concentration as strong as 12 mM MSG ([1]; compound alone, without MSG) [μM cpd as strong as] | Taste Data: cpd concentration at which 12 mM MSG + cpd is as strong as 12 mM MSG + 100 μM IMP [1] | Panelists reporting higher intensity of Cajun spice and pepper flavors (external tasters)
COc1ccc(CNC(=O)C(=O)NCCc2ccccn2)c(OC)c1 [Example 24, N-(2,4-Dimethoxy-benzyl)-N′-(2-pyridin-2-yl-ethyl)-oxalamide] | 1 | 12 mM MSG + 1 μM cpd as | 9/11
CCCC(CCC)NC(=O)c1ccc2c(c1)OCO2 [Example 1, N-(heptan-4-yl)benzo[d][1,3]dioxole-5-carboxamide] | – | 12 mM MSG + 3 μM cpd as | 9/11
